Data published in US20020026053A1, “Novel 3-(substituted) -2- indolinones compounds and use thereof as inhibitors of protein kinase activity” (priority 1997, published 2002).

molecular target: T1, EGFR (Homo sapiens, UniProt P00533); assay: Biochemical EGFR Assay; parameters: concentration or dose not given beside the values; conditions: protocol P.167
T1 construct: endogenous in cells; host or cells: A431 cells (lysate, captured with SUMO1 anti-EGFR antibody)
In short: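 Readout is ABTS absorbance at 410 nm after anti-phosphotyrosine and HRP-antibody detection of EGFR autophosphorylation. The kinase was immunocaptured from A431 lysate, exposed 30 min to test compound diluted 1:10 in TBS, then phosphorylated for 5 min with ATP/MnCl2 before an EDTA stop.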

T1 sequence (P00533 25-1210): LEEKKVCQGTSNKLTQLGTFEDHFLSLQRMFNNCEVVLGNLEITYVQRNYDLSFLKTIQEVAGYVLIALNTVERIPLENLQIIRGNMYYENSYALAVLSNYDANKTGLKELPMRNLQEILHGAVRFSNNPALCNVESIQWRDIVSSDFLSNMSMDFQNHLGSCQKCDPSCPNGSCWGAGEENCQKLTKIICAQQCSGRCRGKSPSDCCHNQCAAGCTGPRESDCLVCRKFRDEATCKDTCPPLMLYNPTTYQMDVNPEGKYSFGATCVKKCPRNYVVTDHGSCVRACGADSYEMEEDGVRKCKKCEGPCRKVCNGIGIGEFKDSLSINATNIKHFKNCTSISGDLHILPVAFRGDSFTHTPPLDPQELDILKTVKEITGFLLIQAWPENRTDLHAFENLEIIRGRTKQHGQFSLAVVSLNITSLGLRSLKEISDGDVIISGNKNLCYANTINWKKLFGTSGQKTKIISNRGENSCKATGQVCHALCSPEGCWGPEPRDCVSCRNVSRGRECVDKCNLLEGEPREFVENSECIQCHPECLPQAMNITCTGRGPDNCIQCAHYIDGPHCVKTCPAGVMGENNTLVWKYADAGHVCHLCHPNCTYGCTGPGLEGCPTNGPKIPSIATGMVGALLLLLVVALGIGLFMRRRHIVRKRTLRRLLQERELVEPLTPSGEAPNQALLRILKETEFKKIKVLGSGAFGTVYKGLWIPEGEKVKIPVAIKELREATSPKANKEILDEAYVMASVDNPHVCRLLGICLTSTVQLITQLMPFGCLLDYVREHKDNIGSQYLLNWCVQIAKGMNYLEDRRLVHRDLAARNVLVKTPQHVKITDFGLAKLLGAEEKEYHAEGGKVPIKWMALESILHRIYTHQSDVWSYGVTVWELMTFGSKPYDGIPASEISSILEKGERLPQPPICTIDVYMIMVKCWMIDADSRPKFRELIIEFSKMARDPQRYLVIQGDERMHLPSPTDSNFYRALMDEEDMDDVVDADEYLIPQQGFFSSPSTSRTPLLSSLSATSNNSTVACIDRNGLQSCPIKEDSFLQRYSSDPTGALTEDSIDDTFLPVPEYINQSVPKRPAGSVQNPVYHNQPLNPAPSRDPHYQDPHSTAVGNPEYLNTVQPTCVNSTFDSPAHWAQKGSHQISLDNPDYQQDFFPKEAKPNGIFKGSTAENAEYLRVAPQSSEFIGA

Structure (SMILES) | Biochem EGFR % Inhibition (P.167) [%]
CCCOc1ccc(C=C2C(=O)Nc3ccc(S(=O)(=O)Nc4ccc(C(F)(F)F)cc4)cc32)cc1 [10738/E11] | 15.8
O=C1Nc2ccc(S(=O)(=O)Nc3ccc(C(F)(F)F)cc3)cc2C1=Cc1cc(O)cc(O)c1 [10738/E07] | 57.1
CNS(=O)(=O)c1ccc2c(c1)C(=Cc1cccc(Oc3ccc(Cl)c(Cl)c3)c1)C(=O)N2 [10738/D03] | 47.6
CCCOc1ccc(C=C2C(=O)Nc3ccc(I)cc32)cc1 [10738/B11] | 18.0
COc1ccc(C=C2C(=O)Nc3ccc(CCCl)cc32)cc1O [10738/G04] | 12.1
COc1ccccc1C=C1C(=O)Nc2ccc(CCCl)cc21 [10738/G09] | 16.7
O=C1Nc2ccc(CCCl)cc2C1=Cc1cc(O)cc(O)c1 [10738/G07] | −1.9
COc1ccccc1C=C1C(=O)Nc2ccc(I)cc21 [10738/B09] | 20.9
O=C1Nc2ccc(I)cc2C1=Cc1cccc(Oc2ccc(Cl)c(Cl)c2)c1 [10738/B03] | 19.2
CCCOc1ccc(C=C2C(=O)Nc3ccc(Br)c(C)c32)cc1 [10738/C11] | −1.1
O=C1Nc2ccc(S(=O)(=O)N3CCOCC3)cc2C1=Cc1cc(O)cc(O)c1 [10738/F07] | 9.1
CC(C)c1ccc(C=C2C(=O)Nc3ccc(CCCl)cc32)cc1 [10738/G10] | 26.5
Cc1ccc(C)c(C=C2C(=O)Nc3c(Br)cc(Br)c(C)c32)c1 [10737/H07] | 17.2
Cc1c(Br)cc(Br)c2c1C(=Cc1cc(O)ccc1[N+](=O)[O-])C(=O)N2 [10738/H05] | 5.5
Cc1ccc(Oc2cccc(C=C3C(=O)Nc4ccc(CCCl)cc43)c2)cc1 [10738/G02] | 19.9
COc1ccc(C=C2C(=O)Nc3ccc(I)cc32)cc1O [10738/B04] | 51.2
Cc1ccc(Oc2cccc(C=C3C(=O)Nc4c(Br)cc(Br)c(C)c43)c2)cc1 [10738/H02] | −52.0
COc1ccc(C=C2C(=O)Nc3c(Br)cc(Br)cc32)cc1O [10738/A04] | −17.5
CNS(=O)(=O)c1ccc2c(c1)C(=Cc1ccc(C(C)C)cc1)C(=O)N2 [10738/D10] | −12.4
Cc1ccc(Oc2cccc(C=C3C(=O)Nc4ccc(I)cc43)c2)cc1 [10738/B02] | −24.4
CC(C)c1ccc(C=C2C(=O)Nc3ccc(S(=O)(=O)Nc4ccc(C(F)(F)F)cc4)cc32)cc1 [10738/E10] | 34.1
Cc1c(Br)ccc2c1C(=Cc1cc(O)ccc1[N+](=O)[O-])C(=O)N2 [10738/C05] | 18.4
CC(C)c1ccc(C=C2C(=O)Nc3c(Br)cc(Br)cc32)cc1 [10738/A10] | −0.9
O=C1Nc2ccc(CCCl)cc2C1=Cc1cccc(O)c1O [10738/G06] | −8.2
CCCOc1ccc(C=C2C(=O)Nc3c(Br)cc(Br)cc32)cc1 [10738/A11] | 4.5
Cc1c(Br)ccc2c1C(=Cc1ccc(C(C)C)cc1)C(=O)N2 [10738/C10] | 5.2

Structure (SMILES) | Biochem EGFR % Inhibition (P.167) [%]
CNS(=O)(=O)c1ccc2c(c1)C(=Cc1cc(O)cc(O)c1)C(=O)N2 [10738/D07] | −8.7
O=C1Nc2ccc(I)cc2C1=Cc1cc(O)ccc1[N+](=O)[O-] [10738/B05] | 57.6
Cc1c(Br)cc(Br)c2c1C(=Cc1cccc(Oc3cccc(C(F)(F)F)c3)c1)C(=O)N2 [10737/H11] | 4.5
O=C1Nc2c(Br)cc(Br)cc2C1=Cc1cccc(O)c1O [10738/A06] | 54.9
CNS(=O)(=O)c1ccc2c(c1)C(=Cc1ccc(OC)c(O)c1)C(=O)N2 [10738/D04] | 7.4
O=C1Nc2ccc(S(=O)(=O)N3CCOCC3)cc2C1=Cc1cccc(Oc2ccc(Cl)c(Cl)c2)c1 [10738/F03] | 45.6
O=C1Nc2ccc(CCCl)cc2C1=Cc1cccc(Oc2ccc(Cl)c(Cl)c2)c1 [10738/G03] | 31.9
O=C1Nc2ccc(S(=O)(=O)Nc3ccc(C(F)(F)F)cc3)cc2C1=Cc1cccc(Oc2ccc(Cl)c(Cl)c2)c1 [10738/E03] | 82.6
Cc1ccc(Oc2cccc(C=C3C(=O)Nc4ccc(Br)c(C)c43)c2)cc1 [10738/C02] | −30.5
CNS(=O)(=O)c1ccc2c(c1)C(=Cc1ccc(Cl)c(Cl)c1)C(=O)N2 [10738/D08] | 0.6
Cc1c(Br)ccc2c1C(=Cc1ccc(Cl)c(Cl)c1)C(=O)N2 [10738/C08] | −11.9
Cc1c(Br)cc(Br)c2c1C(=Cc1cccc(Oc3ccc(C(C)(C)C)cc3)c1)C(=O)N2 [10737/H10] | 0.3
O=C1Nc2ccc(S(=O)(=O)Nc3ccc(C(F)(F)F)cc3)cc2C1=Cc1cc(O)ccc1[N+](=O)[O-] [10738/E05] | 52.0
CC(C)c1ccc(C=C2C(=O)Nc3ccc(I)cc32)cc1 [10738/B10] | 37.3
CNS(=O)(=O)c1ccc2c(c1)C(=Cc1cccc(Oc3ccc(C)cc3)c1)C(=O)N2 [10738/D02] | 21.4
O=C1Nc2ccc(CCCl)cc2C1=Cc1ccc(Cl)c(Cl)c1 [10738/G08] | 23.6
O=C1Nc2ccc(CCCl)cc2C1=Cc1cc(O)ccc1[N+](=O)[O-] [10738/G05] | 27.3
O=C1Nc2ccc(S(=O)(=O)Nc3ccc(C(F)(F)F)cc3)cc2C1=Cc1cccc(O)c1O [10738/E06] | 15.8
Cc1c(Br)cc(Br)c2c1C(=Cc1ccc3ccccc3c1)C(=O)N2 [10737/H08] | −36.6
CNS(=O)(=O)c1ccc2c(c1)C(=Cc1ccccc1OC)C(=O)N2 [10738/D09] | 12.1
Cc1ccc(Oc2cccc(C=C3C(=O)Nc4c(Br)cc(Br)cc43)c2)cc1 [10738/A02] | 16.7
COc1ccccc1C=C1C(=O)Nc2ccc(S(=O)(=O)N3CCOCC3)cc21 [10738/F09] | 0.1
CCCOc1ccc(C=C2C(=O)Nc3ccc(CCCl)cc32)cc1 [10738/G11] | 19.4
COc1ccccc1C=C1C(=O)Nc2ccc(Br)c(C)c21 [10738/C09] | 31.9
Cc1ccc(Oc2cccc(C=C3C(=O)Nc4ccc(S(=O)(=O)N5CCOCC5)cc43)c2)cc1 [10738/F02] | 13.1
O=C1Nc2c(Br)cc(Br)cc2C1=Cc1cc(O)cc(O)c1 [10738/A07] | 4.3

Structure (SMILES) | Biochem EGFR % Inhibition (P.167) [%]
O=C1Nc2ccc(S(=O)(=O)N3CCOCC3)cc2C1=Cc1cc(O)ccc1[N+](=O)[O-] [10738/F05] | 51.5
CCCOc1ccc(C=C2C(=O)Nc3ccc(S(=O)(=O)N4CCOCC4)cc32)cc1 [10738/F11] | −14.8
O=C1Nc2ccc(S(=O)(=O)N3CCOCC3)cc2C1=Cc1cccc(O)c1O [10738/F06] | −19.5
Cc1c(Br)cc(Br)c2c1C(=Cc1ccc(Oc3ccccc3)cc1)C(=O)N2 [10737/H09] | −15.9
CNS(=O)(=O)c1ccc2c(c1)C(=Cc1cc(O)ccc1[N+](=O)[O-])C(=O)N2 [10738/D05] | 4.3
Cc1c(Br)ccc2c1C(=Cc1cc(O)cc(O)c1)C(=O)N2 [10738/C07] | −19.0
Cc1c(Br)cc(Br)c2c1C(=Cc1cccc(Oc3ccc(Cl)c(Cl)c3)c1)C(=O)N2 [10738/H03] | 16.7
O=C1Nc2ccc(S(=O)(=O)Nc3ccc(C(F)(F)F)cc3)cc2C1=Cc1ccc(Cl)c(Cl)c1 [10738/E08] | 43.2
COc1ccc(C=C2C(=O)Nc3ccc(Br)c(C)c32)cc1O [10738/C04] | 43.7
COc1ccc(C=C2C(=O)Nc3c(Br)cc(Br)c(C)c32)cc1O [10738/H04] | −7.0
COc1ccc(C=C2C(=O)Nc3ccc(S(=O)(=O)Nc4ccc(C(F)(F)F)cc4)cc32)cc1O [10738/E04] | 13.1
Cc1c(Br)cc(Br)c2c1C(=Cc1cccc(O)c1O)C(=O)N2 [10738/H06] | −53.8
CNS(=O)(=O)c1ccc2c(c1)C(=Cc1cccc(O)c1O)C(=O)N2 [10738/D06] | 32.4
O=C1Nc2ccc(I)cc2C1=Cc1ccc(Cl)c(Cl)c1 [10738/B08] | 33.9
O=C1Nc2ccc(I)cc2C1=Cc1cccc(O)c1O [10738/B06] | 22.9
COc1ccc(C=C2C(=O)Nc3ccc(S(=O)(=O)N4CCOCC4)cc32)cc1O [10738/F04] | −6.5
O=C1Nc2c(Br)cc(Br)cc2C1=Cc1ccc(Cl)c(Cl)c1 [10738/A08] | 6.0
COc1ccccc1C=C1C(=O)Nc2c(Br)cc(Br)cc21 [10738/A09] | 17.0
O=C1Nc2ccc(I)cc2C1=Cc1cc(O)cc(O)c1 [10738/B07] | 28.7
O=C1Nc2ccc(S(=O)(=O)N3CCOCC3)cc2C1=Cc1ccc(Cl)c(Cl)c1 [10738/F08] | 15.5
Cc1c(Br)ccc2c1C(=Cc1cccc(Oc3ccc(Cl)c(Cl)c3)c1)C(=O)N2 [10738/C03] | 8.2
COc1ccccc1C=C1C(=O)Nc2ccc(S(=O)(=O)Nc3ccc(C(F)(F)F)cc3)cc21 [10738/E09] | 35.3
Cc1ccc(Oc2cccc(C=C3C(=O)Nc4ccc(S(=O)(=O)Nc5ccc(C(F)(F)F)cc5)cc43)c2)cc1 [10738/E02] | 56.1
O=C1Nc2c(Br)cc(Br)cc2C1=Cc1cccc(Oc2ccc(Cl)c(Cl)c2)c1 [10738/A03] | 40.5
